Experimental findings from patent US9226928B2, “Spirocyclic isoxazoline parasiticidal combinations” (Zoetis Services LLC, priority 2012, dated 2016) are described below.

Read-outs that look alike come from different tables or passages of the source. Where only a bound is given, the exact number is not on record here.

Broadly, the AUC is the area under the concentration-time curve, a measure of exposure.

The test system of series [1] is Dirofilaria immitis microfilariae (MF), Michigan strain. The series is described as follows: In vitro motility assay, D. immitis microfilariae.
Description: Antiparasitic compounds were dissolved in DMSO and were spotted into the well of a 384 well microtiter plate. Nematodes in a buffered solution were added to the plates and motility measured at 96 hours for the H. contortus strains and 72 hours for D. immitis. […] MED was subjective based on visual assessment using light microscopy and was the lowest dose to cause a significant decrease in motility. Concentrations at ½ log below the MED were used alone and in combination and were read on the LemnaTec Scanalyzer to provide a quantitative percent motility compared to the negative control.
Material and method for the Dirofilaria immitis in vitro assay: Dirofilaria immitis MF were purified from microfilaremic canine blood by erythrocyte lysis and filtration and maintained in a cell culture media fortified with fetal bovine serum and antibiotics. […] The motility assessment was performed after 72 hours of incubation at 37° C. and 5% CO2 on a LemnaTec Scanalyzer which determined motility of the MF by image analysis.
A further series deals with flea (C. felis). The series is described as follows: In-vitro flea feeding assay. The class given is cell-based, Ctenocephalides felis. The settings on record: for lowest MED alone (lowest dose to cause mortality ≧50%) / control MED dose levels alone (triple combination assay): compound alone; for lowest MED alone (lowest dose to cause mortality ≧50%): 24 hours blood feeding; for control MED dose levels alone (triple combination assay): controls of the triple combination assay.

Series [2] concerns D. immitis (L3 inoculation, adult worm recovery). The series is described as follows: Prevention of heartworm disease in dogs. The settings on record: in vivo, po.
Series [3] is described as follows: Combination pharmacokinetics in fed dogs. The settings on record: dog, in vivo, sampling to 28 days.
Another series concerns C. felis fleas. The series is described as follows: Efficacy against fleas in dogs. The settings on record: all time points (Days 1-35); same groups.
Series [4] has as its system Haemonchus contortus L3 susceptible strain. The series is described as follows: In vitro motility assay, H. contortus L3 susceptible strain. It counts as cell-based.
The subject of series [5] is tick (O. turicata, Zoetis strain). Put plainly: In-vitro tick feeding assay. The class given is cell-based, Ornithodoros turicata. The settings on record: for MED (lowest dose to cause paralysis ≧50%): at 24, 28, and 72 hours post feeding.
The mark [6] stands for this setting: minimum efficacious dose, visual motility assessment, 72 hours.
Where [7] appears, read: vs untreated control, 72 hours, LemnaTec, moxidectin 3.3 μM, pyrantel 33 μM, Compound A 10 μM, alone or combined (triple row prints 100 μM Compound A).
Where [8] appears, read: minimum efficacious dose, visual motility assessment, 96 hours.
The mark [9] stands for this setting: vs untreated control, 96 hours, LemnaTec, moxidectin 0.1 μM, pyrantel 10 μM, Compound A 100 μM, alone or combined.

Description for C. felis fleas: Each dog was infested with approximately 100 unfed viable adult C. felis fleas on Days −1, 6, 13, 20, 27, and 34. Efficacy was assessed by comb counts of live fleas on Days 1, 7, 14, 21, 28, and 35. Efficacy was determined as the % reduction in geometric mean live flea counts versus placebo.

Regarding `CS(=O)(=O)CC(=O)N1CC2(C1)OCc1cc(C3=NO[C@@](c4cc(Cl)c(F)c(Cl)c4)(C(F)(F)F)C3)ccc12` [Compound A, (S)-1-(5′-(5-(3,5-dichloro-4-fluorophenyl)-5-(trifluoromethyl)-4,5-dihydroisoxazol-3-yl)-3′H-spiro[azetidine-3,1′-isobenzofuran]-1-yl)-2-(methylsulfonyl)ethanone], in series [1], the “% Motility” value was determined as 50.9% and the “D. immitis MED” value worked out at 33 µM. In the series with flea (C. felis), the “lowest MED alone (lowest dose to cause mortality ≧50%)” value came to 0.0001 mM and the “control MED dose levels alone (triple combination assay)” value (shortened to “control MED dose levels alone”) is recorded as 0.3 mM. Further, in series [2], the “geometric mean adult D. immitis worm count” value is reported as 30.3 worms recovered from each dog. Besides, the AUC in series [3] (dosed alone: Compound A 2 mg/kg, moxidectin 0.25 μg/kg, pyrantel pamoate 5 mg/kg) was 202 µg·h/mL. The AUC in series [3] (the three compounds dosed simultaneously) stood at 206 µg·h/mL. In the series with C. felis fleas, the “Percentage reductions in geometric and arithmetic mean live flea counts compared with placebo” value is recorded as 100%. Further, in series [4], the “% Motility” value stood at 76.0% and the “H. contortus L3 susceptible MED” value was more than 100 µM. Further, in series [5], the “MED (lowest dose to cause paralysis ≧50%)” value was found to be 0.01 µg/mL.
Turning to `CO/N=C1\C[C@]2(C[C@@H]3C[C@@H](C/C=C(\C)C[C@@H](C)/C=C/C=C4\CO[C@@H]5[C@H](O)C(C)=C[C@@H](C(=O)O3)[C@]45O)O2)O[C@H](/C(C)=C/C(C)C)[C@H]1C` [Moxidectin, moxidectin], the “D. immitis MED” value in series [1] (setting [6]) was 10 µM. For the same compound, the “% Motility” value in series [1] (setting [7]) is recorded as 62.0%. Besides, in the series with flea (C. felis), the “lowest MED alone (lowest dose to cause mortality ≧50%)” value came out at 0.01 mM and the “control MED dose levels alone” value stood at 10 mM. In addition, in series [4] (setting [8]), the “H. contortus L3 susceptible MED” value came to 0.3 µM. Further, in series [4] (setting [9]), the “% Motility” value was 95.0%. In series [5], the “MED (lowest dose to cause paralysis ≧50%)” value worked out at 0.03 µg/mL.
As to `CN1CCCN=C1/C=C/c1cccs1` [Pyrantel, pyrantel pamoate], the “D. immitis MED” value in series [1] (setting [6]) was determined as 100 µM. For the same compound, the “% Motility” value in series [1] (setting [7]) is recorded as 77.8%; in series [4] (setting [9]), 95.6%. The “control MED dose levels alone” value in the series with flea (C. felis) is given as more than 300 mM. For the same compound, the effect on fleas result with flea (C. felis) (highest dose tested (300 mM)) is on record as “no effect”. For the same compound, the “H. contortus L3 susceptible MED” value in series [4] (setting [8]) turned out to be 33 µM. The effect on ticks result in series [5] (at a rate of 3 or 30 ug/mL) was “no effect”.
